Assay results taken from patent US20240390340A1 (INCYTE CORPORATION, priority 2023, published 2024).
pIC50: −log10 of the molar value.

Legend:
[1] = molecular target: KRAS G12D (Homo sapiens, UniProt P01116, G12D); assay: GDP-GTP exchange assay (bodipy-GDP/GppNHp, SOS1), KRAS G12D; format: biochemical; conditions: Table H, column G12D; for compounds isolated as several atropisomers/diastereoisomers the value for the most potent isomer is quoted; read-out: KRAS G12D exchange assay IC50
[2] = tested on: Caco-2 cells; assay: Caco2 assay (Papp A-B); format: in vitro ADME; conditions: test compound 50 μM, 120 min, 37° C.
Experimental: Caco-2 cells are grown at 37° C. in an atmosphere of 5% CO2 in DMEM growth medium supplemented with 10% (v/v) fetal bovine serum, 1% (v/v) nonessential amino acids, penicillin (100 U/mL), and streptomycin (100 μg/mL). Confluent cell monolayers are subcultured every 7 days or 4 days for Caco-2 by treatment with 0.05% trypsin containing […]. Caco-2 cells are seeded in 96-well Transwell plates. The seeding density for Caco-2 cells is 14,000 cells/well. DMEM growth medium is replaced every other day after seeding. Cell monolayers are used for transport assays between 22 and 25 days for Caco-2 cells.
Cell culture medium is removed and replaced with HBSS. To measure the TEER, the HBSS is added into the donor compartment (apical side) and receiver compartment (basolateral side). The TEER is measured by using a REMS Autosampler to ensure the integrity of the cell monolayers. Caco-2 cell monolayers with TEER values 300 Ω·cm^2 are used for transport experiments. To determine the Papp in the absorptive direction (A-B), solution of test compound (50 μM) in HBSS is added to the donor compartment (apical side), while HBSS solution with 4% BSA is added to the receiver compartment (basolateral side). The apical volume was 0.075 mL, and the basolateral volume is 0.25 mL. The incubation period is 120 min. at 37° C. in an atmosphere of 5% CO2. At the end of the incubation period, samples from the donor and receiver sides are removed and an equal volume of MeCN is added for protein precipitation. The supernatants are collected after centrifugation (3000 rpm, Allegra X-14R Centrifuge from Beckman Coulter, Indianapolis, IN) for LCMS analysis. The permeability value is determined according to the equation:
[formula] • where the flux rate (F, mass/time) is calculated from the slope of cumulative amounts of compound of interest on the receiver side, SA is the surface area of the cell membrane, VD is the donor volume, and MD is the initial amount of the solution in the donor chamber.
The symbol “+” indicates a Caco-2 value of ≤0.5, “++” indicates a Caco-2 value of >0.5 but ≤1; and “+++” indicates a Caco-2 value of >1. “NA” indicates IC50 not available.

[3] = molecular target: KRAS G12V (Homo sapiens, UniProt P01116, G12V); assay: GDP-GTP exchange assay (bodipy-GDP/GppNHp, SOS1), KRAS G12V; format: biochemical; conditions: Table H, column G12V; for compounds isolated as several atropisomers/diastereoisomers the value for the most potent isomer is quoted; read-out: KRAS G12V exchange assay IC50
Chain of KRAS G12V (P01116 1-188 isoform P01116-2 G12V): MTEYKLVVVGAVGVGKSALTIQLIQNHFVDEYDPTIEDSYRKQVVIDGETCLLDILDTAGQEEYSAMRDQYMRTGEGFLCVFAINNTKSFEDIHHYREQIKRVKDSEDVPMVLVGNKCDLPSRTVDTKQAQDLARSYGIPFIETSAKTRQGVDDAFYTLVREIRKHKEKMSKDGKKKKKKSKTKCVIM

Chain of KRAS G12D (P01116 1-188 isoform P01116-2 G12D): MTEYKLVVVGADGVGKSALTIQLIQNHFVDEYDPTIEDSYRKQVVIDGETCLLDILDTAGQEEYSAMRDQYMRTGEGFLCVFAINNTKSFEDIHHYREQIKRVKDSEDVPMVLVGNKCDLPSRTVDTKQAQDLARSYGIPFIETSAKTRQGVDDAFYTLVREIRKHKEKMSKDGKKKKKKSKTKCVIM

| pIC50 [1] | Caco-2 [2] | pIC50 [3] | Structure (SMILES) |
| --- | --- | --- | --- |
| ≥ 7.00 | + (a Caco-2 value of ≤0.5) | ≥ 7.00 | Cc1nc2c(F)c(-c3cccc(Cl)c3Cl)c(CCC#N)cc2c2c1cc([C@H]1C[C@H](Oc3ccnc4ccsc34)CN1C(=O)C1CC1)n2[C@H]1[C@H]2CN[C@@H]1C2 [Example 55, 3-(1-((1R,4R,5S)-2-Azabicyclo[2.1.1]hexan-5-yl)-2-((2R,4S)-1-(cyclopropanecarbonyl)-4-(thieno[3,2-b]pyridin-7-yloxy)pyrrolidin-2-yl)-7-(2,3-dichlorophenyl)-6-fluoro-4-methyl-1H-pyrrolo[3,2-c]quinolin-8-yl)propanenitrile] |
| ≥ 7.00 | + (a Caco-2 value of ≤0.5) | ≥ 7.00 | C[C@@H](O)c1nc2c(F)c(-c3cccc(Cl)c3Cl)c(CCC#N)cc2c2c1cc([C@H]1C[C@H](Oc3cc(C4CC4)on3)CN1C(=O)C1CC1)n2[C@H]1[C@H]2CN[C@@H]1C2 [Example 77, 3-(1-((1R,4R,5S)-2-Azabicyclo[2.1.1]hexan-5-yl)-2-((2R,4S)-1-(cyclopropanecarbonyl)-4-((5-cyclopropylisoxazol-3-yl)oxy)pyrrolidin-2-yl)-7-(2,3-dichlorophenyl)-6-fluoro-4-((R)-1-hydroxyethyl)-1H-pyrrolo[3,2-c]quinolin-8-yl)propanenitrile] |
| ≥ 7.00 | ++ (a Caco-2 value of >0.5 but ≤1) | ≥ 7.00 | COc1ncccc1CO[C@H]1C[C@H](c2cc3c(C)nc4c(F)c(-c5cccc(Cl)c5Cl)c(CCC#N)cc4c3n2[C@H]2[C@H]3CN[C@@H]2C3)N(C(=O)C2CC2)C1 [Example 27] |
| ≥ 7.00 | ++ (a Caco-2 value of >0.5 but ≤1) | ≥ 7.00 | Cc1nc2c(F)c(-c3cccc(Cl)c3Cl)c(CCC#N)cc2c2c1cc([C@H]1C[C@H](n3cc(F)cn3)CN1C(=O)C1CC1)n2[C@H]1[C@H]2CN[C@@H]1C2 [Example 72, 3-(1-((1R,4R,5S)-2-Azabicyclo[2.1.1]hexan-5-yl)-2-((2R,4S)-1-(cyclopropanecarbonyl)-4-(4-fluoro-1H-pyrazol-1-yl)pyrrolidin-2-yl)-7-(2,3-dichlorophenyl)-6-fluoro-4-methyl-1H-pyrrolo[3,2-c]quinolin-8-yl)propanenitrile] |
| ≥ 7.00 | ++ (a Caco-2 value of >0.5 but ≤1) | ≥ 7.00 | COc1cc(O[C@H]2C[C@H](c3cc4c(C)nc5c(F)c(-c6cccc(Cl)c6Cl)c(CCC#N)cc5c4n3[C@H]3[C@H]4CN[C@@H]3C4)N(C(=O)C3CC3)[C@@H]2C)ccn1 [Example 41, 3-(1-((1R,4R,5S)-2-Azabicyclo[2.1.1]hexan-5-yl)-2-((2R,4S,5R)-1-(cyclopropanecarbonyl)-4-((2-methoxypyridin-4-yl)oxy)-5-methylpyrrolidin-2-yl)-7-(2,3-dichlorophenyl)-6-fluoro-4-methyl-1H-pyrrolo[3,2-c]quinolin-8-yl)propanenitrile] |

Further lines, the compound ahead of its results:

| Structure (SMILES) | pIC50 [1] | Caco-2 [2] | pIC50 [3] |
| --- | --- | --- | --- |
| Cc1nc2c(F)c(-c3cccc(Cl)c3Cl)c(CCC#N)cc2c2c1cc([C@H]1C[C@H](OCc3cc(C(F)(F)F)sn3)CN1C(=O)C1CC1)n2[C@H]1[C@H]2CN[C@@H]1C2 [Example 11] | ≥ 7.00 | + (a Caco-2 value of ≤0.5) | ≥ 7.00 |
| Cc1nc2c(F)c(-c3cccc(Cl)c3Cl)c(CCC#N)cc2c2c1cc([C@H]1C[C@H](n3cc(C45CC(C4)C5)nn3)CN1C(=O)C1CC1)n2[C@H]1[C@H]2CN[C@@H]1C2 [Example 68, 3-(2-((2R,4S)-4-(4-(Bicyclo[1.1.1]pentan-1-yl)-1H-1,2,3-triazol-1-yl)-1-(cyclopropanecarbonyl)pyrrolidin-2-yl)-1-((1R,4R,5S)-2-azabicyclo[2.1.1]hexan-5-yl)-7-(2,3-dichlorophenyl)-6-fluoro-4-methyl-1H-pyrrolo[3,2-c]quinolin-8-yl)propanenitrile] | ≥ 7.00 | + (a Caco-2 value of ≤0.5) | ≥ 7.00 |
| Cc1nc2c(F)c(-c3cccc(Cl)c3Cl)c(CCC#N)cc2c2c1cc([C@H]1C[C@H](OCc3ccon3)CN1C(=O)C1CC1)n2[C@H]1[C@H]2CN[C@@H]1C2 [Example 12] | ≥ 7.00 | + (a Caco-2 value of ≤0.5) | ≥ 7.00 |
| Cc1nc2c(F)c(-c3cccc(Cl)c3Cl)c(CCC#N)cc2c2c1cc([C@H]1C[C@H](n3cc(C4(C(F)F)CC4)nn3)CN1C(=O)C1CC1)n2[C@H]1[C@H]2CN[C@@H]1C2 [Example 67, 3-(1-((1R,4R,5S)-2-Azabicyclo[2.1.1]hexan-5-yl)-2-((2R,4S)-1-(cyclopropanecarbonyl)-4-(4-(1-(difluoromethyl)cyclopropyl)-1H-1,2,3-triazol-1-yl)pyrrolidin-2-yl)-7-(2,3-dichlorophenyl)-6-fluoro-4-methyl-1H-pyrrolo[3,2-c]quinolin-8-yl)propanenitrile] | ≥ 7.00 | + (a Caco-2 value of ≤0.5) | ≥ 7.00 |
| [2H]C([2H])([2H])O[C@H]1CC[C@@H]1O[C@H]1C[C@H](c2cc3c(C)nc4c(F)c(-c5cccc(Cl)c5Cl)c(CCC#N)cc4c3n2[C@H]2[C@H]3CN[C@@H]2C3)N(C(=O)C2CC2)C1 (stereo in doubt) [Example 80, trans-3-(1-((1R,4R,5S)-2-Azabicyclo[2.1.1]hexan-5-yl)-2-((2R,4S)-1-(cyclopropanecarbonyl)-4-(2-(methoxy-d3)cyclobutoxy)pyrrolidin-2-yl)-7-(2,3-dichlorophenyl)-6-fluoro-4-methyl-1H-pyrrolo[3,2-c]quinolin-8-yl)propanenitrile] | ≥ 7.00 | ++ (a Caco-2 value of >0.5 but ≤1) | ≥ 7.00 |
| Cc1nc2c(F)c(-c3cccc(Cl)c3Cl)c(CCC#N)cc2c2c1cc([C@H]1C[C@H](Oc3ccccn3)CN1C(=O)C1CC1)n2[C@H]1[C@H]2CN[C@@H]1C2 [Example 5, 3-(1-((1R,4R,5S)-2-Azabicyclo[2.1.1]hexan-5-yl)-2-((2R,4S)-1-(cyclopropanecarbonyl)-4-(pyridin-2-yloxy)pyrrolidin-2-yl)-7-(2,3-dichlorophenyl)-6-fluoro-4-methyl-1H-pyrrolo[3,2-c]quinolin-8-yl)propanenitrile] | ≥ 7.00 | +++ (a Caco-2 value of >1) | ≥ 7.00 |
| Cc1cc(CO[C@H]2C[C@H](c3cc4c(C)nc5c(F)c(-c6cccc(Cl)c6Cl)c(CCC#N)cc5c4n3[C@H]3[C@H]4CN[C@@H]3C4)N(C(=O)C3CC3)C2)no1 [Example 7] | ≥ 7.00 | ++ (a Caco-2 value of >0.5 but ≤1) | ≥ 7.00 |
| COc1cc(O[C@H]2C[C@H](c3cc4c(C)nc5c(F)c(-c6cccc(Cl)c6Cl)c(CCC#N)cc5c4n3[C@H]3[C@H]4CN[C@@H]3C4)N(C(=O)C3CC3)C2)c(F)cn1 [Example 43, 3-(1-((1R,4R,5S)-2-Azabicyclo[2.1.1]hexan-5-yl)-2-((2R,4S)-1-(cyclopropanecarbonyl)-4-((5-fluoro-2-methoxypyridin-4-yl)oxy)pyrrolidin-2-yl)-7-(2,3-dichlorophenyl)-6-fluoro-4-methyl-1H-pyrrolo[3,2-c]quinolin-8-yl)propanenitrile] | ≥ 7.00 | + (a Caco-2 value of ≤0.5) | ≥ 7.00 |
| COc1ccc(O[C@H]2C[C@H](c3cc4c([C@@H](C)O)nc5c(F)c(-c6cccc(Cl)c6Cl)c(CCC#N)cc5c4n3[C@H]3[C@H]4CN[C@@H]3C4)N(C(=O)C3CC3)C2)cn1 [Example 76, 3-(1-((1R,4R,5S)-2-Azabicyclo[2.1.1]hexan-5-yl)-2-((2R,4S)-1-(cyclopropanecarbonyl)-4-((6-methoxypyridin-3-yl)oxy)pyrrolidin-2-yl)-7-(2,3-dichlorophenyl)-6-fluoro-4-((R)-1-hydroxyethyl)-1H-pyrrolo[3,2-c]quinolin-8-yl)propanenitrile] | ≥ 7.00 | ++ (a Caco-2 value of >0.5 but ≤1) | ≥ 7.00 |
| Cc1nc2c(F)c(-c3cccc(Cl)c3Cl)c(CCC#N)cc2c2c1cc([C@H]1C[C@H](OCc3ccccc3C(F)F)CN1C(=O)C1CC1)n2[C@H]1[C@H]2CN[C@@H]1C2 [Example 18] | ≥ 7.00 | + (a Caco-2 value of ≤0.5) | ≥ 7.00 |
